Experimental findings from PubChem BioAssay (NCI) are described below.

Among the test systems are A549 NSCLC; UACC-257 melanoma; MOLT-4 leukemia; HL-60(TB) leukemia; OVCAR-8 ovarian; UACC-62 melanoma; TK-10 renal; U251 CNS; KM12 colon.
Common to all, as to experiment: NCI-60 cell line screen, 48 h

“And” between values parts separate entries of the source, which are not always exact repeats. Identical values can stand only once.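 Test compounds were applied to cells in 96-well plates for 48 hours at 5 doses. At the GI50, growth is halved. At the TGI there is no net growth.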

In the case of `O=C1C[C@H]2CCCN2[C@@H](c2ccccc2)C1`, the TGI in the assay with A549 NSCLC, in the assay with UACC-257 melanoma, in the assay with MOLT-4 leukemia, in the assay with HL-60(TB) leukemia, in the assay on OVCAR-8 ovarian and with UACC-62 melanoma was greater than 100 µM in each case. The TGI in the assay with TK-10 renal, in the assay on U251 CNS and in the assay on KM12 colon was greater than 100 µM throughout.

Turning to `O=C(O)CCNS(=O)(=O)c1ccc(NC(=O)c2ccccc2)cc1`, the TGI in the assay with A549 NSCLC, in the assay on UACC-257 melanoma, in the assay on MOLT-4 leukemia, in the assay on HL-60(TB) leukemia, in the assay with OVCAR-8 ovarian and in the assay on UACC-62 melanoma was greater than 100 µM each time. The TGI in the assay with TK-10 renal, with U251 CNS and with KM12 colon was greater than 100 µM each time.

`CN(C(=O)/C=C/c1ccccc1)C1C2CN3CCC(O2)C13` (configuration not stated): the TGI in the assay on A549 NSCLC, in the assay with UACC-257 melanoma, in the assay with MOLT-4 leukemia, in the assay with HL-60(TB) leukemia, in the assay with OVCAR-8 ovarian and with UACC-62 melanoma was greater than 100 µM throughout. Further, the TGI in the assay with TK-10 renal, with U251 CNS and in the assay with KM12 colon was greater than 100 µM in each case.

As to `Cc1ccc(S(=O)(=O)SC/C=C\CSS(=O)(=O)c2ccc(C)cc2)cc1`, the TGI is greater than 100 µM in the assay on A549 NSCLC; > 56.2 µM and 45.1 µM with UACC-257 melanoma; 14.6 µM and 72.6 µM in the assay with MOLT-4 leukemia; 46.8 µM and 33.9 µM with OVCAR-8 ovarian; > 79.9 µM and 45.5 µM in the assay on UACC-62 melanoma; > 100 µM and 45.5 µM with TK-10 renal. Besides, the TGI was 66.3 µM and 34.7 µM in the assay with U251 CNS; > 100 µM and 30.4 µM in the assay on KM12 colon. Moreover, the GI50 was 42.3 µM and 20.8 µM in the assay on UACC-257 melanoma; 50 µM and 20.4 µM in the assay on TK-10 renal.

Take `CC(=O)c1c(O)c(C)c(O)c(Cc2c(O)c3c(c(C(=O)/C=C/c4ccccc4)c2O)OC(C)(C)C=C3)c1O`: the TGI with A549 NSCLC was 5.13 µM; with UACC-257 melanoma it was 7.16 µM; in the assay on MOLT-4 leukemia, 16.8 µM; with HL-60(TB) leukemia it was 26.2 µM; with OVCAR-8 ovarian, 23.7 µM; with UACC-62 melanoma, 10 µM. For the same molecule, the TGI with TK-10 renal is greater than 100 µM; in the assay on U251 CNS, 14.5 µM; with KM12 colon, 16.7 µM.

As to `O=C(Oc1cccnc1)c1cccnc1Nc1ccnc(C(F)(F)F)c1`, the GI50 is greater than 100 µM with A549 NSCLC; 27.1 µM with UACC-257 melanoma; 3.87 µM in the assay on MOLT-4 leukemia; 64.9 µM in the assay with OVCAR-8 ovarian; 5.78 µM with UACC-62 melanoma; 17.2 µM with TK-10 renal. Further, the values for the GI50 in the assay on U251 CNS and with KM12 colon were 14.3 µM and 4.01 µM, respectively. Further, the TGI in the assay on A549 NSCLC was greater than 100 µM; in the assay on UACC-257 melanoma, greater than 100 µM; in the assay with MOLT-4 leukemia, 23.8 µM; in the assay on OVCAR-8 ovarian it was greater than 100 µM; in the assay with UACC-62 melanoma it was 24.1 µM; with TK-10 renal, greater than 100 µM. Moreover, the figures for the TGI in the assay with U251 CNS and in the assay with KM12 colon were 47.3 µM and 18.2 µM, respectively.

For `O=C(NCCCOC(=O)CCCCCCCCC(=O)OCCCNC(=O)NC(=O)c1c[nH]c(=O)[nH]c1=O)NC(=O)c1c[nH]c(=O)[nH]c1=O`, the TGI in the assay with A549 NSCLC, in the assay on UACC-257 melanoma, with MOLT-4 leukemia, with HL-60(TB) leukemia, in the assay on OVCAR-8 ovarian and with UACC-62 melanoma was greater than 100 µM throughout. Also, the TGI in the assay on TK-10 renal, in the assay with U251 CNS and in the assay on KM12 colon was greater than 100 µM in each case.

For the molecule `COc1ccc2c(c1)C(=O)/C(=C/c1cccc(OCC(=O)c3ccccc3)c1)CC2`, the GI50 in the assay on A549 NSCLC is 36.6 µM; in the assay on UACC-257 melanoma, 8.56 µM; in the assay with MOLT-4 leukemia, 3.05 µM; in the assay on HL-60(TB) leukemia it was 2.18 µM; in the assay on OVCAR-8 ovarian, 44.1 µM; with UACC-62 melanoma it was 12.8 µM. Moreover, the values for the GI50 with TK-10 renal, in the assay on U251 CNS and in the assay on KM12 colon were greater than 100 µM, 16.8 µM and 6.92 µM, respectively. The TGI was greater than 100 µM with A549 NSCLC; greater than 100 µM in the assay with UACC-257 melanoma; 6.82 µM in the assay on MOLT-4 leukemia; 5.16 µM in the assay on HL-60(TB) leukemia; greater than 100 µM with OVCAR-8 ovarian; greater than 100 µM with UACC-62 melanoma. For the same molecule, the TGI in the assay with TK-10 renal, in the assay with U251 CNS and in the assay on KM12 colon was greater than 100 µM in each case.

For `O=C1Nc2ccccc2C1(O)C/C(=N/O)c1ccc2ccccc2c1` (configuration not stated), the TGI with A549 NSCLC, with UACC-257 melanoma, in the assay with MOLT-4 leukemia, in the assay on HL-60(TB) leukemia, in the assay on OVCAR-8 ovarian and in the assay with TK-10 renal was greater than 100 µM in each case. Also, the TGI in the assay with U251 CNS and in the assay on KM12 colon was greater than 100 µM throughout.

Consider `C[N+](C)(C)CCC(=O)CC[N+](C)(C)C`, for which the TGI in the assay with A549 NSCLC is greater than 100 µM; in the assay with UACC-257 melanoma it was 35.9 µM; with MOLT-4 leukemia, 19.5 µM; in the assay with HL-60(TB) leukemia, 17.5 µM; in the assay with OVCAR-8 ovarian, 44 µM; in the assay with UACC-62 melanoma, 41.4 µM. In addition, the values for the TGI in the assay with TK-10 renal, with U251 CNS and in the assay with KM12 colon were 34.6 µM, greater than 100 µM and 42.2 µM, respectively.

Consider `CCC1(O)C(=O)OCc2c1cc1n(c2=O)Cc2cc3ccccc3nc2-1` (configuration not stated), for which the TGI in the assay with A549 NSCLC turned out to be 0.334 µM; in the assay on UACC-257 melanoma, 3.57 µM; in the assay with HL-60(TB) leukemia, 0.0659 µM; in the assay with OVCAR-8 ovarian, 15.7 µM; in the assay with UACC-62 melanoma, 0.0379 µM; in the assay on TK-10 renal it was 50.5 µM. The TGI in the assay on U251 CNS is 0.57 µM; in the assay with KM12 colon, greater than 100 µM.

As to `Cn1c(=O)c(N=Nc2c(=O)n(C)c(=O)n3c2[nH]c2ccccc23)c2[nH]c3ccccc3n2c1=O`, the TGI in the assay on A549 NSCLC, in the assay with UACC-257 melanoma, in the assay with HL-60(TB) leukemia, in the assay on OVCAR-8 ovarian, with UACC-62 melanoma and in the assay with TK-10 renal was greater than 100 µM in each case. Also, the TGI in the assay on U251 CNS and in the assay with KM12 colon was greater than 100 µM in each case.

Turning to `CCOC(=O)Cc1nc2ccc3c(c2[nH]c1=O)C(=O)c1ccccc1C3=O`, the TGI in the assay on A549 NSCLC was greater than 100 µM; in the assay with UACC-257 melanoma, greater than 100 µM; with MOLT-4 leukemia, 54.2 µM; with OVCAR-8 ovarian, greater than 100 µM; in the assay on UACC-62 melanoma it was greater than 100 µM; with TK-10 renal it was greater than 100 µM. Besides, the TGI in the assay with U251 CNS and in the assay with KM12 colon was greater than 100 µM throughout.

As to `CC[O-].CC[O-].O=C([CH-]C(=O)c1ccccc1)CCCCCCCCC(=O)[CH-]C(=O)c1ccccc1.[Ti+4]`, the GI50 in the assay with A549 NSCLC was greater than 100 µM; in the assay on UACC-257 melanoma, greater than 100 µM; in the assay on MOLT-4 leukemia, 53.9 µM; in the assay on HL-60(TB) leukemia, greater than 100 µM; in the assay on OVCAR-8 ovarian, 52.1 µM; in the assay on UACC-62 melanoma, greater than 100 µM. Further, the GI50 is greater than 100 µM in the assay on TK-10 renal, greater than 100 µM with U251 CNS and 0.032 µM in the assay on KM12 colon. In addition, the TGI with A549 NSCLC, in the assay on UACC-257 melanoma, in the assay with MOLT-4 leukemia, in the assay on HL-60(TB) leukemia, in the assay with OVCAR-8 ovarian and in the assay on UACC-62 melanoma was greater than 100 µM in each case. The results for the TGI with TK-10 renal, in the assay on U251 CNS and in the assay on KM12 colon were greater than 100 µM, greater than 100 µM and 3.25 µM, respectively.

For the molecule `C/C=C/C(C#N)O[Si](C)(C)C` (configuration not stated), the TGI with A549 NSCLC, with UACC-257 melanoma, with MOLT-4 leukemia, with HL-60(TB) leukemia, with OVCAR-8 ovarian and in the assay on UACC-62 melanoma was greater than 100 µM throughout. For the same molecule, the TGI with TK-10 renal, in the assay on U251 CNS and in the assay on KM12 colon was greater than 100 µM each time.

`C1CSCCCSCCCSCCCSCCCSCCCSCCCSCCCSC1`: the TGI in the assay on A549 NSCLC, in the assay on UACC-257 melanoma, in the assay on MOLT-4 leukemia, with HL-60(TB) leukemia, in the assay on OVCAR-8 ovarian and in the assay with TK-10 renal was greater than 100 µM each time. The TGI with U251 CNS and in the assay on KM12 colon was greater than 100 µM in each case.

On to `O=C(N/N=C/c1ccccc1O)N/N=C/c1ccccc1O`, for which the TGI in the assay on A549 NSCLC, in the assay with UACC-257 melanoma, with MOLT-4 leukemia, in the assay with HL-60(TB) leukemia, in the assay on OVCAR-8 ovarian and with UACC-62 melanoma was greater than 100 µM each time. The TGI with TK-10 renal and in the assay with U251 CNS was greater than 100 µM throughout.

Turning to `c1ccc(C2ONC3=NCCN32)cc1` (configuration not stated), the GI50 is 51.1 µM in the assay with A549 NSCLC; greater than 100 µM in the assay on UACC-257 melanoma; 12.2 µM with MOLT-4 leukemia; 44.6 µM in the assay on OVCAR-8 ovarian; 39.4 µM in the assay on UACC-62 melanoma; greater than 100 µM with TK-10 renal. Moreover, the GI50 with U251 CNS was 55 µM; with KM12 colon, 51.3 µM. The TGI with A549 NSCLC was greater than 100 µM; with UACC-257 melanoma, greater than 100 µM; in the assay with MOLT-4 leukemia, 34.6 µM; in the assay with OVCAR-8 ovarian, greater than 100 µM; with UACC-62 melanoma it was greater than 100 µM; in the assay with TK-10 renal, greater than 100 µM. The TGI with U251 CNS and with KM12 colon was greater than 100 µM throughout.

Take `CCc1c(C#N)c(=O)[nH]c(=O)n1CCN1CCN(C(=O)NCCCCCCNC(=O)N2CCN(CCn3c(CC)c(C#N)c(=O)[nH]c3=O)CC2)CC1`: the TGI in the assay on A549 NSCLC, with UACC-257 melanoma, in the assay with MOLT-4 leukemia, in the assay with HL-60(TB) leukemia, in the assay with OVCAR-8 ovarian and with UACC-62 melanoma was greater than 100 µM each time. Also, the TGI in the assay on TK-10 renal and in the assay with U251 CNS was greater than 100 µM each time.
